# What was measured:
# [1] = tested on: human lymphoblastoid TK6 cells, thymidine kinase gene; experiment: TK gene mutation assay (TK6 assay, OECD TG490)
# TK6 cells = experiment: Cytotoxicity in the TK6 assay (CE, RS, RSG, RTG); conditions: +S9 mix
# Experimental: Briefly, test substances were dissolved in an appropriate solvent (DMSO or ethanol) and then serially diluted to prepare final concentrations. […] The 4 h and 24 h treatments were conducted by shaking and static exposures, respectively. After treatment with test substances, cells were centrifuged (1000 rpm, 5 min), supernatants were removed, and cells were washed with a serum-free medium or Hank’s Balanced Salt Solution. After centrifugation (1000 rpm, 5 min) to remove the supernatant, cells (2 × 10^7 cells) were dispersed in an RPMI medium containing 10% serum, and cell concentration was measured. Treated cells were cultured at 37 °C with 5% CO2 condition and used for TK6 assays. At that time, to calculate the cloning efficiency (CE) (Eq. 1), the cells were cultured in a 96-well microplate at a concentration of about 1.6 cells/well for 2 weeks.
# CE, the cell colony formation rate, was calculated using Eq. 1 according to the Poisson distribution equation. EW was the number of wells without colonies, and TW was the total number of wells. N was the average number of cells per well (N = 1.6). 1 CE=−lnEW/TW/N
# Additionally, CE was adjusted by the following calculation (Eq. 2) due to cell loss when exposure caused cytotoxicity. “The number of cells at the end of the treatment” was the number of cells obtained after centrifugation at the end of the treatment in the above-described exposure treatment of the test substance. The “cell number at the start of treatment” was 2 × 10^7. 2 AdjustedCE=CE×number of cellsatendof treatment/number of cellsatthe start of treatment
# CE0 seeding, in which cells were seeded immediately after treatment, and CE3 seeding, in which cells were seeded 3 days after treatment, to examine cell viability in the TK6 assay described below. The relative cell viability RS0 (%) just after the treatment with the test substance was calculated from CE0, following Eq. 3. The survival rate of the negative control group was defined as 100%. 3 RS0%=adjusted CE0 of treatment culture/adjusted CE0 of solvent control×100
# The TK6 assay is conducted between 20 and 10% RS0 as a maximum dose if cytotoxicity is observed. […] When the main TK6 assay was difficult to conduct under the condition of RS0 values from 20 to 10%, the test was conducted between 20 and 10% relative total growth (RTG), described later, as a maximum dose.
# Besides RS0, relative suspension growth (RSG) and RTG as other cytotoxicity indices (Eq. 4) were used. When cells were cultured for 3 days after treatment with the test substance, suspension cell growth ratio 1 (SG1) was the growth ratio from day 0 to day 1 (cell concentration on day 1/cell concentration on day 0). The suspension cell growth ratio 2 (SG2) was the growth ratio from day 1 to day 2 (cell concentration on day 2/cell concentration on day 1). The RSG value was calculated by dividing the total SG value of the untreated group for 3 days by the total SG value of the treated group for the same 3 days (Eq. 4).
# On the third day of culture, CE3 plates for determining plating efficiency and mutant frequency (MF) plates for mutation detection were prepared. CE3 plates were seeded in 96-well microplates at a concentration of about 1.6 cells/well.
# [2] = dose 3.00 μg/mL, short treatment, +S9 mix
# [3] = short treatment, +S9 mix, positive control, dose 10.00 μg/mL
# [4] = Short treatment, 3.00 μg/mL, Day 0
# [5] = dose 3.00 μg/mL, short treatment
# [6] = short treatment, Day 0, positive control, dose 10.00 μg/mL
compound,measurement,setting,value
"O=P1(N(CCCl)CCCl)NCCCO1 (centres unmarked) [CP, Cyclophosphamide, reference compound]",%SG,[1]; [2],75.7%
same,Mut. freq. (×10-6) N-MF,[1]; [2],14.0 ×10-6
same,Mut. freq. (×10-6) S-MF,[1]; [2],43.8 ×10-6
same,Mut. freq. (×10-6) T-MF,[1]; [2],57.8 ×10-6
same,mutant frequency of the concurrent positive control (mean),"[1]; short treatment with S9 mix, 2.5–3 μg/mL",28.6 × 10^− 6
same,%SG,[1]; [3],50.8%
same,Mut. freq. N-MF,[1]; [3],10.0 ×10-6
same,Mut. freq. S-MF,[1]; [3],10.3 ×10-6
same,Mut. freq. T-MF,[1]; [3],20.3 ×10-6
same,Daily cell growth Day 1×2×3,"TK6 cells; Short treatment, 3.00 μg/mL",7.35
same,RSG,"TK6 cells; Short treatment, 3.00 μg/mL",0.385
same,Adjusted CE0,TK6 cells; [4],34.5%
same,CE0,TK6 cells; [4],36.0%
same,RS0,TK6 cells; [4],43.1%
same,CE3,"TK6 cells; Short treatment, 3.00 μg/mL, Day 3",66.7%
same,CE3,TK6 cells; [5],0.667
same,RS,TK6 cells; [5],43.1
same,Adjusted CE0,TK6 cells; [6],11.6%
same,CE0,TK6 cells; [6],10.6%
same,RS0,TK6 cells; [6],12.2%
same,CE3,"TK6 cells; short treatment, Day 3, positive control, dose 10.00 μg/mL",68.7%
same,CE3,"TK6 cells; short treatment, as fraction, positive control, dose 10.00 μg/mL",0.687
same,RSG,"TK6 cells; short treatment, positive control, dose 10.00 μg/mL",0.063

# From paper PMC7937321 (Genes and Environment, 2021)
